The text below walks through data of ChEMBL document CHEMBL1201862, “PubChem BioAssay data set” (2004).

Some test systems named below: BT-549; EKVX; TK-10; SNB-19; OVCAR-3; Malme-3M; MOLT-4; HCT-15.
Holding throughout (experiment): growth of human tumour cells (NCI), 48 h

SMILES strings stand for the structures.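 Results reflect a 48-hour exposure of cells in 96-well plates to compound at five concentrations. GI50 marks 50% less growth.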 Active and inactive are the calls of the source. Rule as the data show it: active = GI50 up to about 1.1 µM and inactive = higher.

With `C=C1C(=O)O[C@H]2/C=C(/C)C3=CC(=O)[C@@](C)(C[C@@H](OC(=O)/C(C)=C\C)C12)O3` (stereo partly drawn), the GI50 with BT-549 is 1.21 µM (inactive); in the assay with EKVX, 1.29 µM (inactive); in the assay on TK-10, 0.649 µM (active); with SNB-19 it was 13.2 µM (inactive); with OVCAR-3, 0.769 µM (active); in the assay on Malme-3M, 0.387 µM (active).
Consider `C=C1C(C)C2C(Cc3ccccc3)NC(=O)C23C(OC(C)=O)C=CC(C)(O)C(=O)C(C)C/C=C/C3C1O` (stereo not drawn), for which the GI50 in the assay with MOLT-4 was 15.1 µM (inactive); in the assay with HCT-15, 5.55 µM.
